The record followed here is article PMC9278120, “Epitope alteration by small molecules and applications in drug discovery” (Chemical Science, 2022).

The target in experiment [1] is T1, amyloid beta (Aβ1–40) (Homo sapiens, UniProt P05067). The experiment is described as follows: FRET titration of ternary complex with 4G8 and PE-labelled secondary antibody; dot blot; fluorescence probe in competition. In kind it is binding. Details: gene APP; Aβ1–40 monomers (also oligomers and aggregates); with 4G8 antibody.
T1 sequence (P05067 672-711): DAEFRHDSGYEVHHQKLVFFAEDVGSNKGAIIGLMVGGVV
The target of experiment [2] is T1, amyloid beta (Aβ1–40). The experiment is described as follows: fluorescence competition with CRANAD-3; also antibody dot blot, MSD, Simoa and ThT aggregation assay. In kind it is binding. Further details: gene APP; Aβ1–40 monomers.
Experiment [3] concerns the target T1, amyloid beta (Aβ1–40). As to the kind of experiment: concentration-dependent 4G8 dot blot (one-site binding fit); ANS fluorescence; FRET; MSD/Simoa. Details: gene APP; Aβ1–40; fragment Aβ17–24 also tested by ANS; with 4G8 antibody.

On to `CCN(CC)c1ccc(/C=C/C2=CC(/C=C/c3ccc(N(CC)CC)nc3)=[O+][B-](F)(F)O2)cn1` [CRANAD-3], for which the “FRET titration of ternary complex with 4G8 and PE-labelled secondary antibody; d” value at amyloid beta (Aβ1–40) [1] was “enhanced antibody recognition was due to the formation of the ternary complex of CRANAD-3, Aβs and 4G8 antibody”. Molecule `Cc1ccc(NC(=O)Nc2cc(C(F)(F)F)ccc2F)cc1Nc1ccc2c(c1)NC(=O)/C2=C\c1ccc[nH]1` [GNF-5837] yielded a Ki on amyloid beta (Aβ1–40) [2] of 4.16 ± 1.04 nM. Usually EC50 stands for the concentration at which the effect is half-maximal. The low end stands for greater potency, the high end for weaker potency. The molecule CRANAD-17 returned a 50% effective concentration (EC50) on amyloid beta (Aβ1–40) [3] of 121 nM.
